Source: patent US20060069132A1, “Azolecarboxamide herbicides” (priority 2004, published 2006)

Columns and labels:
[1] = system: wild oat; test: Test C postemergence herbicide test; type: in vivo, Avenafatua
In short: (§1)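 Visual rating, 0 (no effect) to 100 (complete control), vs. controls at 12–14 d in greenhouse. Postemergence: 1–4-leaf plants, 2–18 cm. Paddy: flooded, barnyardgrass at 2-leaf stage.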

[2] = system: Surinam grass; test: Test C pre-/postemergence herbicide test; type: in vivo, Urochloa decumbens; settings: preemergence
In short: (§2)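 Pre- and postemergence application, solvent/surfactant formulation; post at 1- to 4-leaf stage (2–18 cm). Greenhouse 12–14 d. Visual rating vs controls, 0 = no effect, 100 = complete control.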

[3] = system: Italian ryegrass; test: Test C postemergence herbicide test; type: in vivo, Lolium multiflorum
In short: as §1

[4] = system: wheat; test: Test C postemergence herbicide test; type: in vivo, Triticum aestivum
In short: as §1

[5] = system: woolly cupgrass; test: Test C pre-/postemergence herbicide test; type: in vivo, Eriochloa villosa; settings: preemergence
In short: as §2

[6] = system: kochia; test: Test C pre-/postemergence herbicide test; type: in vivo, Kochia scoparia; settings: preemergence
In short: as §2

[7] = system: johnsongrass; test: Test C pre-/postemergence herbicide test; type: in vivo, Sorghum halepense; settings: preemergence
In short: as §2

[8] = system: eastern black nightshade; test: Test C pre-/postemergence herbicide test; type: in vivo, Solanum ptycanthum; settings: preemergence
In short: as §2

[9] = system: corn; test: Test C pre-/postemergence herbicide test; type: in vivo, Zea mays; settings: preemergence
In short: as §2

[10] = system: lambsquarters; test: Test C pre-/postemergence herbicide test; type: in vivo, Chenopodium album; settings: preemergence
In short: as §2

[11] = system: rice; test: Test C flooded paddy test; type: in vivo, Oryza sativa; settings: for Plant response rating, Rice: 500 g ai/ha, visual rating after 12 to 14 days
In short: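 Plants were grown to the 1- to 4-leaf stage (2–18 cm) and then treated postemergence, or grown to the 2-leaf stage for the flooded paddy test. They were held in a greenhouse for 12 to 14 days and then scored by eye against controls, where 0 is no effect and 100 is complete control.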

[12] = system: cocklebur; test: Test C pre-/postemergence herbicide test; type: in vivo, Xanthium strumarium
In short: as §2

[13] = system: downy bromegrass; test: Test C postemergence herbicide test; type: in vivo, Bromus tectorum
In short: as §1

[14] = system: common (oilseed) sunflower; test: Test C pre-/postemergence herbicide test; type: in vivo, Helianthus annuus; settings: preemergence
In short: as §2

[15] = Postemergence, 500 g ai/ha, scale 0 to 100, 0 no effect, 100 complete control
[16] = postemergence, 125 g ai/ha, scale 0 to 100
[17] = postemergence, 62 g ai/ha, scale 0 to 100
[18] = 500 g ai/ha, scale 0 to 100 (0 no effect, 100 complete control), visual, 12 to 14 days
[19] = 125 g ai/ha, scale 0 to 100 (0 no effect, 100 complete control)
[20] = 250 g ai/ha, scale of 0 to 100, 0 is no effect, 100 is complete control
[21] = scale 0 to 100 (0 no effect, 100 complete control)
[22] = 62 g ai/ha, preemergence, scale 0 to 100
[23] = 250 g ai/ha, scale 0-100, preemergence
[24] = Postemergence, 250 g ai/ha, scale 0 to 100, 0 no effect, 100 complete control
[25] = Postemergence, 500 g ai/ha, scale 0 to 100
[26] = 125 g ai/ha, scale 0 (no effect) to 100 (complete control), visual, 12 to 14 days

Structure (SMILES): Cc1nn(C(C)(C)C)nc1C(=O)Nc1cccc(C(=O)N(C)C)c1 [Compound 391]
- Plant response rating, Oat, Wild [1, 15]: 65
- Plant response rating, Oat, Wild [1, 16]: 40
- Plant response rating, Oat, Wild [1, 17]: 30
- Plant response rating, Surinam Grass ([2]; 62 g ai/ha, scale 0 to 100): 85
- Plant response rating (0 = no effect, 100 = complete control), Surinam Grass ([2]; 125 g ai/ha): 95
- Plant response rating, Surinam Grass ([2]; 250 g ai/ha, scale 0-100): 95
- Plant response rating, Surinam Grass [2, 18]: 95
- Plant response rating, Ryegrass, Italian [3, 15]: 65
- Plant response rating, Ryegrass, Italian [3, 16]: 40
- Plant response rating, Ryegrass, Italian [3, 17]: 35
- Plant response rating, Wheat [4, 15]: 35
- Plant response rating, Wheat [4, 16]: 20
- Plant response rating, Wheat [4, 17]: 0
- Plant response rating, Cupgrass, Woolly ([5]; 62 g ai/ha, scale 0 to 100): 70
- Plant response rating (0 = no effect, 100 = complete control), Cupgrass, Woolly ([5]; 125 g ai/ha): 75
- Plant response rating, Cupgrass, Woolly ([5]; 250 g ai/ha, scale 0-100): 80
- Plant response rating, Cupgrass, Woolly [5, 18]: 100
- Plant response rating, Kochia ([6]; 62 g ai/ha, scale 0 to 100): 100
- Plant response rating (0 = no effect, 100 = complete control), Kochia ([6]; 125 g ai/ha): 100
- Plant response rating, Kochia ([6]; 250 g ai/ha, scale 0-100): 100
- Plant response rating, Kochia [6, 18]: 100
- Plant response rating, Johnsongrass ([7]; 62 g ai/ha, scale 0 to 100): 100
- Plant response rating (0 = no effect, 100 = complete control), Johnsongrass ([7]; 125 g ai/ha): 100
- Plant response rating, Johnsongrass ([7]; 250 g ai/ha, scale 0-100): 100
- Plant response rating, Johnsongrass [7, 18]: 100
- Plant response rating, Nightshade ([8]; 62 g ai/ha, scale 0 to 100): 90
- Plant response rating (0 = no effect, 100 = complete control), Nightshade ([8]; 125 g ai/ha): 95
- Plant response rating, Nightshade ([8]; 250 g ai/ha, scale 0-100): 95
- Plant response rating, Nightshade [8, 18]: 95
- Plant response rating, Corn ([9]; 62 g ai/ha, scale 0 to 100): 80
- Plant response rating (0 = no effect, 100 = complete control), Corn ([9]; 125 g ai/ha): 80
- Plant response rating, Corn ([9]; 250 g ai/ha, scale 0-100): 85
- Plant response rating, Corn [9, 18]: 85
- Plant response rating, Lambsquarters ([10]; 62 g ai/ha, scale 0 to 100): 100
- Plant response rating (0 = no effect, 100 = complete control), Lambsquarters ([10]; 125 g ai/ha): 100
- Plant response rating, Lambsquarters ([10]; 250 g ai/ha, scale 0-100): 100
- Plant response rating, Lambsquarters [10, 18]: 100
- Rice plant response rating ([11]; 62 g ai/ha, scale 0 to 100): 65
- Rice plant response rating [11, 19]: 65
- Rice plant response rating [11, 20]: 75
- Plant response rating, Rice [11, 21]: 80
- Plant response rating, Cocklebur [12, 22]: 20
- Plant response rating (0 = no effect, 100 = complete control), Cocklebur ([12]; 125 g ai/ha, preemergence): 45
- Plant response rating, Cocklebur [12, 23]: 80
- Plant response rating, Cocklebur ([12]; 500 g ai/ha, scale 0 to 100 (0 no effect, 100 complete control), visual, 12 to 14 days, preemergence): 80
- Plant response rating, Bromegrass, Downy [13, 24]: 55
- Plant response rating, Bromegrass, Downy [13, 15]: 65
- Plant response rating, Bromegrass, Downy [13, 16]: 45
- Plant response rating, Bromegrass, Downy [13, 17]: 45
- Plant response rating, Sunflower ([14]; 62 g ai/ha, scale 0 to 100): 50
- Plant response rating (0 = no effect, 100 = complete control), Sunflower ([14]; 125 g ai/ha): 95
- Plant response rating, Sunflower ([14]; 250 g ai/ha, scale 0-100): 100
- Plant response rating, Sunflower [14, 18]: 100

Structure (SMILES): CCn1nc(C2(C)CC2)cc1C(=O)Nc1cccc(C(=O)N2CC=CC2)c1 [Compound 304]
- Oat, Wild plant response rating [1, 25]: 70
- Plant response rating, Oat, Wild [1, 24]: 60
- Plant response rating, Oat, Wild [1, 16]: 60
- Plant response rating, Oat, Wild [1, 17]: 60
- Plant response rating, Surinam Grass ([2]; 62 g ai/ha, scale 0 to 100): 0
- Plant response rating, Surinam Grass ([2]; 250 g ai/ha, scale 0-100): 40
- Plant response rating, Surinam Grass [2, 18]: 85
- Ryegrass, Italian plant response rating [3, 25]: 50
- Plant response rating, Ryegrass, Italian [3, 24]: 50
- Plant response rating, Ryegrass, Italian [3, 16]: 50
- Plant response rating, Ryegrass, Italian [3, 17]: 50
- Wheat plant response rating [4, 25]: 40
- Plant response rating, Wheat [4, 24]: 40
- Plant response rating, Wheat [4, 16]: 40
- Plant response rating, Wheat [4, 17]: 35
- Plant response rating, Cupgrass, Woolly ([5]; 62 g ai/ha, scale 0 to 100): 5
- Plant response rating, Cupgrass, Woolly [5, 26]: 10
- Plant response rating, Cupgrass, Woolly ([5]; 250 g ai/ha, scale 0-100): 60
- Plant response rating, Cupgrass, Woolly [5, 18]: 80
- Plant response rating, Kochia [6, 26]: 80
- Plant response rating, Kochia ([6]; 250 g ai/ha, scale 0-100): 85
- Plant response rating, Kochia [6, 18]: 100
- Plant response rating, Johnsongrass ([7]; 62 g ai/ha, scale 0 to 100): 0
- Plant response rating, Johnsongrass [7, 26]: 60
- Plant response rating, Johnsongrass ([7]; 250 g ai/ha, scale 0-100): 70
- Plant response rating, Johnsongrass [7, 18]: 80
- Plant response rating, Nightshade ([8]; 62 g ai/ha, scale 0 to 100): 80
- Plant response rating, Nightshade [8, 26]: 100
- Plant response rating, Nightshade ([8]; 250 g ai/ha, scale 0-100): 100
- Plant response rating, Nightshade [8, 18]: 100
- Plant response rating, Corn ([9]; 62 g ai/ha, scale 0 to 100): 0
- Plant response rating, Corn [9, 26]: 0
- Plant response rating, Corn ([9]; 250 g ai/ha, scale 0-100): 15
- Plant response rating, Corn [9, 18]: 30
- Plant response rating, Lambsquarters ([10]; 62 g ai/ha, scale 0 to 100): 0
- Plant response rating, Lambsquarters [10, 26]: 100
- Plant response rating, Lambsquarters ([10]; 250 g ai/ha, scale 0-100): 100
- Plant response rating, Lambsquarters [10, 18]: 100
- Rice plant response rating ([11]; 62 g ai/ha, scale 0 to 100): 45
- Rice plant response rating [11, 19]: 60
- Rice plant response rating [11, 20]: 70
- Plant response rating, Rice [11, 21]: 75
- Plant response rating, Cocklebur [12, 22]: 0
- Plant response rating, Cocklebur ([12]; 125 g ai/ha, scale 0 (no effect) to 100 (complete control), visual, 12 to 14 days, preemergence): 0
- Plant response rating, Cocklebur [12, 23]: 0
- Cocklebur plant response rating ([12]; Preemergence, 500 g ai/ha, scale 0 to 100, 0 no effect, 100 complete control): 0
- Bromegrass, Downy plant response rating [13, 25]: 50
- Plant response rating, Bromegrass, Downy [13, 24]: 40
- Plant response rating, Bromegrass, Downy [13, 16]: 40
- Plant response rating, Bromegrass, Downy [13, 17]: 40
- Plant response rating, Sunflower ([14]; 62 g ai/ha, scale 0 to 100): 0
- Plant response rating, Sunflower ([14]; 250 g ai/ha, scale 0-100): 0
- Plant response rating, Sunflower [14, 18]: 5
